Assay: xn = mol fraction of the nth substance listed
Settings: 101 kPa, Liquid; for speed of sound: Sing-around technique in a fixed-path interferometer

ClC(Cl)Cl [trichloromethane] + CCCCCCCO
Settings	kinematic viscosity, 303.15 K [m2/s]	kinematic viscosity, 313.15 K [m2/s]	mass density, 303.15 K [kg/m3]	mass density, 313.15 K [kg/m3]	speed of sound, 303.15 K [m/s]	speed of sound, 313.15 K [m/s]
x1 = 0.0487	5.58e-06	4.17e-06	833.37	825.81	1296	1262
x1 = 0.1002	4.98e-06	3.74e-06	853.69	845.75	1277	1244
x1 = 0.1498	4.41e-06	3.34e-06	874.2	865.8	1260	1226
x1 = 0.2006	3.86e-06	2.95e-06	896.15	887.32	1241	1207
x1 = 0.2516	3.38e-06	2.61e-06	919.27	909.96	1222	1187
x1 = 0.3003	2.93e-06	2.29e-06	942.39	932.57	1204	1168
x1 = 0.3538	2.52e-06	1.99e-06	969.09	958.73	1183	1147
x1 = 0.4003	2.18e-06	1.75e-06	993.52	982.67	1165	1129
x1 = 0.4466	1.89e-06	1.54e-06	1019.1	1007.69	1147	1111
x1 = 0.5001	1.61e-06	1.32e-06	1050.23	1038.22	1126	1091
x1 = 0.5517	1.35e-06	1.13e-06	1082.09	1069.43	1107	1072
x1 = 0.6002	1.17e-06	1e-06	1113.83	1100.51	1089	1054
x1 = 0.6539	9.76e-07	8.45e-07	1151.17	1137.19	1070	1035
x1 = 0.6994	8.51e-07	7.41e-07	1184.84	1170.19	1054	1019
x1 = 0.7449	7.4e-07	6.59e-07	1220.55	1205.18	1039	1004
x1 = 0.8	6.33e-07	5.69e-07	1266.83	1250.5	1022	987
x1 = 0.8465	5.58e-07	5.09e-07	1308.67	1291.64	1008	972
x1 = 0.9003	4.81e-07	4.45e-07	1360.81	1342.82	993	957
x1 = 0.9521	4.2e-07	3.88e-07	1414.86	1396.16	979	943
x1 = 1	3.63e-07	3.39e-07	1469.21	1449.74	969	934

ClC(Cl)Cl [trichloromethane] + CCCCCCO
Settings	kinematic viscosity, 303.15 K [m2/s]	kinematic viscosity, 313.15 K [m2/s]	mass density, 303.15 K [kg/m3]	mass density, 313.15 K [kg/m3]	speed of sound, 303.15 K [m/s]	speed of sound, 313.15 K [m/s]
x1 = 0.0497	4.36e-06	3.21e-06	833.07	825.31	1271	1238
x1 = 0.1004	3.88e-06	2.89e-06	855.62	847.51	1253	1220
x1 = 0.15	3.45e-06	2.59e-06	878.54	870.06	1236	1201
x1 = 0.2006	3.04e-06	2.31e-06	902.79	893.94	1217	1182
x1 = 0.2506	2.67e-06	2.05e-06	927.71	918.4	1198	1163
x1 = 0.3005	2.34e-06	1.83e-06	953.48	943.71	1180	1143
x1 = 0.3497	2.04e-06	1.6e-06	980.04	969.85	1161	1125
x1 = 0.4004	1.77e-06	1.41e-06	1008.41	997.66	1142	1105
x1 = 0.4516	1.53e-06	1.23e-06	1038.38	1027.09	1123	1086
x1 = 0.4996	1.34e-06	1.09e-06	1067.63	1055.84	1106	1069
x1 = 0.552	1.14e-06	9.5e-07	1100.94	1088.53	1087	1051
x1 = 0.6	9.87e-07	8.33e-07	1133.01	1120	1070	1034
x1 = 0.654	8.52e-07	7.35e-07	1170.75	1157	1052	1016
x1 = 0.7001	7.46e-07	6.49e-07	1204.57	1190.18	1038	1002
x1 = 0.753	6.5e-07	5.82e-07	1245.39	1230.25	1023	986
x1 = 0.7992	5.82e-07	5.22e-07	1282.69	1266.83	1010	974
x1 = 0.8511	5.08e-07	4.7e-07	1327.07	1310.35	997	961
x1 = 0.8996	4.5e-07	4.26e-07	1370.59	1352.95	987	950
x1 = 0.9502	4.06e-07	3.81e-07	1418.68	1400.1	977	941
x1 = 1	3.63e-07	3.39e-07	1469.21	1449.74	969	934

ClC(Cl)Cl [trichloromethane] + CCCCCO
Settings	kinematic viscosity, 303.15 K [m2/s]	kinematic viscosity, 313.15 K [m2/s]	mass density, 303.15 K [kg/m3]	mass density, 313.15 K [kg/m3]	speed of sound, 303.15 K [m/s]	speed of sound, 313.15 K [m/s]
x1 = 0.0603	3.29e-06	2.56e-06	838.65	830.58	1241	1206
x1 = 0.1009	3.02e-06	2.35e-06	859.39	850.98	1226	1191
x1 = 0.1484	2.7e-06	2.12e-06	884.22	875.42	1209	1173
x1 = 0.1999	2.37e-06	1.88e-06	911.83	902.58	1190	1154
x1 = 0.2517	2.08e-06	1.66e-06	940.34	930.67	1171	1135
x1 = 0.2999	1.83e-06	1.48e-06	967.6	957.42	1153	1117
x1 = 0.3492	1.61e-06	1.31e-06	996.23	985.58	1135	1099
x1 = 0.3998	1.39e-06	1.15e-06	1026.46	1015.29	1118	1082
x1 = 0.45	1.22e-06	1.02e-06	1057.32	1045.59	1101	1065
x1 = 0.5004	1.07e-06	9.03e-07	1089.21	1076.95	1084	1048
x1 = 0.5498	9.31e-07	8.02e-07	1121.44	1108.55	1068	1032
x1 = 0.6001	8.27e-07	7.22e-07	1155.25	1141.78	1053	1017
x1 = 0.6513	7.24e-07	6.43e-07	1190.8	1176.65	1038	1002
x1 = 0.7003	6.57e-07	5.85e-07	1225.93	1211.12	1025	989
x1 = 0.751	5.85e-07	5.3e-07	1263.53	1247.97	1012	977
x1 = 0.8	5.3e-07	4.83e-07	1301.08	1284.81	1001	966
x1 = 0.8503	4.87e-07	4.48e-07	1341.02	1323.97	991	956
x1 = 0.9004	4.42e-07	4.11e-07	1382.24	1364.37	982	947
x1 = 0.952	4.05e-07	3.75e-07	1426.4	1407.56	974	938
x1 = 1	3.63e-07	3.39e-07	1469.21	1449.74	969	934
